The record followed here is patent US20100248229A1, “INVITRO HUMAN EMBRYONIC MODEL AND A METHOD THEREOF” (Stempeutics Research Private Limited, priority 2007, published 2010).

One data set deals with EBs. In words: In vitro 3-D embryo implantation model: attachment and outgrowth of EBs. The data set is classed as cell-based, human. Particulars: for degeneration, attachment and outgrowth of EBs in implantation model: high dose, 48 hrs; for ability of attached EBs to give rise to all lineages: lineage induction studies, in presence of the compound. The source says: An in vitro 3-dimensional (3-D) model/system for embryo implantation employing EBs in place of embryos was developed. The EBs collected on different days were subjected to implantation/attachment on the artificial substratum/surface.
To make this artificial surface regular tissue culture dishes or organ culture dishes were coated with about 1 to 2 mm thick coating of 0.5 to 1% low melting or high melting agarose in DPBS. A few wells of about 1 to 2 mm diameter are created using sterile paper disks, preferable in the center of the dish, which were removed after the agarose solidifies. Alternatively a horizontal tube like structure can be created by casting the gel over a fine glass capillary, which can be withdrawn as the agarose solidifies. This cavity/depression or tube like structure of agarose is then coated with matrix proteins like matrigel, collagen, fibronectin, laminin, gelatin etc. The coated agarose dishes were also layered with mouse or human endometrial stromal cells obtained from primary cultures or cell lines. The EBs were placed carefully in the cavity created or flushed inside the tube using a bent pasture pipette. The cells were cultured in normal standard EB media.
The EBs adhere and outgrows spreading out as a monolayer of cells on the extracellular matrix. Some cells invaded the surrounding agarose by day 10. A failure to implant/outgrow within ten days on this matrix after exposure to the drug/molecule indicates an abnormality. However, some drugs/could also support/enhance the process of attachment and outgrowth of the EBs. These molecules were screened for several other possible applications, though these may not necessarily be safe for embryonic development.
Four day old EBs were cultured on agarose and fibronectin coated surfaces. […] However, as Y27632 supports and enhances outgrowth, the effect of this drug on the expression profiles of the lineage markers and other genes needs to be screened for evaluating effect on normal development.
The model consists of a culture plate which is coated with Low melting (0.5%) agarose, A well of various depths is created in the agarose by various means eg: putting sterile filter paper disks while casting the gel and removing them latter. The gel is then coated with extracellular matrix components like fibronectin, collagen, laminin, etc. Human endometrial stromal fibroblast cell line CRL4003 is grown on this extracellular matrix as a monolayer. The spherical embryoid bodies or embryo like entities at day 4.5 are injected or pipetted into these cavities. The attachment is allowed in a culture media regularly used for hESC culture, without FGF2 supplementation (FIG. 1).
3. Lineage induction studies: The embryoid bodies after attachment to the implantation site differentiates to all lineages.
Method: Spherical Cytic EBs were collected on day 4.5 and exposed to the continuous presence of Y27632 (various doses were used). […] The control cytic EB had however just attached with smaller area of outgrowth showing that this dose of Y27632 can help in initial implantation of embryo during pregnancy.

The next data set concerns HUES 9 EB. The experiment in a line: Expression profiles of lineage, pluripotency, epigenetic and imprinted genes in day 4.5 spherical EBs (HUES 9). In kind it is cell-based, human. On the set-up: key: The sign ‘+’ indicates expression of the gene; the sign “−” indicates non-expression of the gene. The procedure: RT-PCR: Total RNA from cells was isolated using TRIZOL-LS Reagent (Invitrogen) as per the manufacturer's protocol. Complementary DNA was synthesized using the SuperScript III First-Strand Synthesis System (Invitrogen) as per the manufacturer's instructions. Polymerase Chain Reaction (PCR) was carried out using 1U Tag DNA Polymerase (Sigma) and MgCl2 to a final concentration of 1.5 mM in a total volume of 25 μl/reaction. β-actin and GAPDH were used as the housekeeping controls. PCR cycles consisted of an initial denaturation at 95° C. for 5 minutes followed by 35 amplification cycles of denaturation at 94° C. for 45 seconds, annealing for 45 seconds, and extension at 72° C. for 45 seconds and final extension at 72° C. for 10 minutes.
Examples of changes in the expression profiles/patterns of lineage markers, pluripotency markers, epigenetic markers and imprinted genes, in day 4.5 spherical cavitating/cytic embryoid bodies upon exposure to compounds like lipopolysaccharide (LPS), Rho kinase inhibitor (Y27632), Azacytidine (Aza), and biologicals like an Uvomorulin antibody (UVO) are given in the table nos. 9-12 below. The sign ‘+’ indicates expression of the gene and the sign “−” indicates non-expression of the gene.

[1] abbreviates: HUES 9 EB DAY 4.5 RI (Y27632), control +.
[2] abbreviates: HUES 9 EB DAY 4.5 RI (Y27632), control −.

Entries after “also recorded” stand apart in the source; their conditions may differ.

On to `Nc1ncn([C@@H]2O[C@H](CO)[C@@H](O)[C@H]2O)c(=O)n1` [5-Azacytidine], for which the “degeneration, attachment and outgrowth of EBs in implantation model” value in the data set with EBs is “degeneration of the EBs, and they failed to attach and outgrow”. Besides, in the data set on HUES 9 EB (HUES 9 EB D 4.5 AZA, control +), the BRACHURY gene expression entry is listed as “−”, the CDH1 gene expression entry is given as “−”, the CDH13 gene expression entry is “−” and the CDX2 gene expression result is reported as “−”. Besides, in the data set with HUES 9 EB (HUES 9 EB D 4.5 AZA, control +), the DLK1 gene expression entry was “−”, the HOXD12 gene expression entry is given as “−”, the NANOG gene expression result is recorded as “−” and the SDHD gene expression result is listed as “−”. In the data set on HUES 9 EB (HUES 9 EB D 4.5 AZA, control +), the TIMP3 gene expression entry was “−”, the TNFR gene expression result is recorded as “−”, the hTERT gene expression entry is recorded as “−” and the p53 gene expression entry is on record as “−”. Moreover, in the data set with HUES 9 EB (HUES 9 EB D 4.5 AZA, control −), the BMP-2 gene expression result is “−”, the CD44 gene expression entry is on record as “−”, the DPYS gene expression entry is “+” and the H19 gene expression entry is “−”. Moreover, in the data set on HUES 9 EB (HUES 9 EB D 4.5 AZA, control −), the OCT-4 gene expression entry is recorded as “+”, the PTEN gene expression entry is “−” and the “β-III TUBULIN gene expression” value was “−”.
Regarding `C[S+](C)[O-]` [DMSO], in the data set on EBs, the “degeneration, attachment and outgrowth of EBs in implantation model” value was “degeneration of the EBs, and they failed to attach and outgrow”; the “ability of attached EBs to give rise to all lineages” value is “compromised”.
Turning to `OO` [H2O2], the “ability of attached EBs to give rise to all lineages” value in the data set with EBs is reported as “compromised”.
Turning to `C[C@@H](N)[C@H]1CC[C@H](C(=O)Nc2ccncc2)CC1` [Y27632], the “attachment and outgrowth of spheroid cavitating/cystic EB in implantation model” value with EBs (day 4.5 EBs, 20 μM, 48 hrs exposure) was “supportive/enhanced attachment; also recorded: attached and outgrown to a larger area”. In the data set on EBs (four day old EBs on agarose and fibronectin coated surfaces, 20 μM, control attached from 4th day), the “attachment of EBs” value is recorded as “enhanced attachment from day 2 onwards”. For the same compound, in the data set with HUES 9 EB (setting [1]), the BRACHURY gene expression entry is “−”, the CDH1 gene expression entry is given as “+”, the CDX-2 gene expression entry is given as “−” and the DLK-1 gene expression entry is recorded as “−”. For the same compound, in the data set with HUES 9 EB (setting [1]), the HOXD11 gene expression result was “+”, the HOXD12 gene expression entry is “−”, the SDHD gene expression entry is “−” and the TIMP3 gene expression entry is “−”. Further, in the data set on HUES 9 EB (setting [1]), the hTERT gene expression entry is given as “−” and the p53 gene expression entry is reported as “−”. In addition, in the data set with HUES 9 EB (setting [2]), the BMP-2 gene expression entry was “−”, the CD44 gene expression result is “+”, the NOTCH gene expression result is “+” and the OCT-4 gene expression entry is recorded as “+”. Also, in the data set on HUES 9 EB (setting [2]), the PGR gene expression entry is “+”, the PTEN gene expression entry is “+”, the “TGF β gene expression” value is recorded as “+” and the TP73 gene expression result was “+”. The “β-III TUBULIN gene expression” value in the data set on HUES 9 EB (setting [2]) is reported as “+”.
